# Reference: patent US12391768B2, “Antibodies to ticagrelor and methods of use” (MEDIMMUNE LIMITED, priority 2014, dated 2025)
# Like-named read-outs stand apart in the source and are kept apart here.
# What was measured:
# TICA0049 Fab = test: HTRF competition binding selectivity assay, TICA0049 His-Fab; design: species or system human
# Procedure: (§1) Total Binding control wells were set up which contained all of the assay components above except that 5 ul assay buffer was added in place of the test selectivity compound addition. Negative Binding control wells were set up which contained all of the assay components included in the Total Binding control wells except that 5ul assay buffer was added in place of the His-Fab addition. Test compound serial titrations were either ½ or ⅓ depending on the particular experiment and top final assay compound concentrations were optimized on a compound specific basis. The concentration of biotinylated ticagrelor and His-Fab was optimized on a Fab specific basis in separate experiments. For the four Fabs investigated at the end of the lead isolation phase (TICA0010, TICA0049, TICA0053 and TICA0072) the final assay reagent concentrations used are set out in Table 1 below:
# (§2) For the two Fabs investigated at the end of the lead optimization phase (TICA0162 and TICA0212) the final assay reagent concentrations used were 5nM biotinylated ticagrelor and 1 nM His Fab in both cases. […] In order to enable subsequent normalization of data to correct for any such vehicle related effects parallel titrations of DMSO alone were included in most experiments in which the final assay DMSO concentrations mirrored those of the test compound serial dilutions. At the end of the set up procedure that assay was incubated for 3hrs at RT before being read on an Envision plate reader using a standard read protocol.
# (§3) The negative ratio value used in the calculation of % Delta F was derived from the Negative Binding control wells. % Delta F values were then used to calculate % Specific Binding values according to the equation below: Specific Binding (%)={(Sample Delta F−Negative Binding Delta F)/(Total Binding Delta F−Negative Binding Delta F)}×100
# (§4) For standard calculations of % Specific Binding Total Binding Delta F was taken from Total Binding control wells which contained all of the aforementioned components of the assay but without inclusion of any competing test compound.
# (§5) In those experiments where DMSO normalization was applied DMSO normalised % Specific Binding was calculated essentially according to the equation above except that in this case Total Binding Delta F was taken from wells containing all of the components in the Total Binding control wells as well as DMSO at a concentration equivalent to that in the relevant sample well.
# In a second series of experiments further selectivity data was generated for TICA0049 and TICA0072 Fabs in which a subset of four of the twelve compounds listed in FIG. 4 were retested along with ticagrelor, TAM and TIM and several adenosine related compounds. Here, in a refinement to the earlier investigations in Table 2, experiments were designed in order to enable normalisation of percent specific binding values to correct for any non-specific vehicle related effects due to DMSO. Example plotted data from this second series of experiments is shown in FIG. 5A-F along with tabulated IC50 values in Table 3.
# TICA0053 Fab = test: HTRF competition binding selectivity assay, TICA0053 His-Fab; design: species or system human; conditions: first series (Table 2), not DMSO normalised; read-out: IC50 (uM) for inhibition of biotinylated ticagrelor binding to TICA0053 his-Fab
# Procedure: as §1, §2, §3, §4, §5
# [1] = design: species or system mice; conditions: mouse, in vivo
# Procedure: The method was optimized based on a previous published method [Sillen H., et al., J Chromatogr B Analyt Technol Biomed Life Sci. 2011 Aug. 1; 879(23): 2315-22]. Dialysis membranes (Spectrum Laboratories, Inc) which allows molecules with a mass below 6 to 8 kDa to pass through, was soaked in ELGA water for 10 to 15 min and placed between the dialysis plate halves (in house made). Plasma, 130 μL, was added to one side of the dialysis plate and 130 μL phosphate buffer, pH 7.0, was added to the opposite side. The wells on both sides were sealed with lids and aluminum plates were put on top on each side of the plate to avoid leakage. The plate was then placed vertical on an orbital shaker at 100 rpm/min at 37° C. for 24 h. The dialysis was terminated by transferring of 50 μL retentate from plasma side and 75 μL dialysate from buffer side to a protein LoBind PCR clean 96 deep-well plate containing 150 μL respective 75 μL internal standard (D7-ZD6140) in acetonitrile. The plate was mixed for 1 min and then centrifuged for 20 min, 1500× g at 4° C. After centrifugation 50 μL supernatant from the precipitated retentate was transferred and diluted with 50 μL ELGA H2O before LC-MS/MS (Acquity Ultra Performance LC coupled to a Xevo TQ-S mass spectrometer, Waters) analysis. No quality control samples were used in the analysis. […]
# [2] = human, in vivo; cited from earlier work
smiles,measurement,setting,value
"CCCSc1nc(N[C@@H]2C[C@H]2c2ccc(F)c(F)c2)c2nnn([C@@H]3C[C@H](OCCO)[C@@H](O)[C@H]3O)c2n1 [Ticagrelor, (1S,2S,3R,5S)-3-[7-{[(1R,2S)-2-(3,4-difluorophenyl)cyclopropyl]amino}-5-(propylthio)-3H-[1,2,3]triazolo[4,5-d]pyrimidin-3-yl]-5-(2-hydroxyethoxy)cyclopentane-1,2-diol]",IC50,"TICA0049 Fab; first series (Table 2), not DMSO normalised, read-out: IC50 (uM) for inhibition of biotinylated ticagrelor binding to TICA0049 his-Fab",0.257 µM
same,IC50,"TICA0049 Fab; second series (Table 3), DMSO normalised, read-out: IC50 in competition binding selectivity studies, TICA0049",0.368 µM
same,IC50,TICA0053 Fab,0.109 µM
same,mean free plasma concentration of ticagrelor,[1],4.7 nM
same,circulating half-life,[2],8 h
